Source: patent publication US9615581B2, “Stable needle-shaped crystals of natamycin” (DSM IP ASSETS B.V., priority 2004, dated 2017)

Assays:
Type in all cases: physicochemical
[1] = Sedimentation (demixing) of natamycin dispersions in tapwater in glass tubes; settings: 1.5 g Delvocid equivalent in 1000 g tapwater, glass tube
Protocol: This example describes the test performed to analyze the sedimentation differences. 1.5 g Delvocid® was added to 998.5 gram tapwater and dispersed well by an electric top stirrer, type RW 20 DZM, from Janke & Kunkel equipped with a rushton stirrer. 1.5 gram of Delvocid® made according to Example 1 was mixed with tapwater to a final weight of 1000 gram by an electric top stirrer, type RW 20 DZM, from Janke & Kunkel equipped with a rushton stirrer. Both homogeneous mixtures were poured in glass tubes and observed in time on demixing.

[2] = Resuspendability of settled natamycin in a low viscous dispersion; settings: not touched for 26 days, glass tubes turned around once
Protocol: This example describes the test that was performed to analyze the resuspendability of settled natamycin in a low viscous dispersion. 1.5 gram Delvocid® was added to 998.5 gram tapwater and dispersed well by an electric top stirrer, type RW 20 DZM, from Janke & Kunkel equipped with a rushton stirrer. An amount equal to 1.5 gram Delvocid® made according to Example 1 was mixed with tapwater to a final weight of 1000 gram by an electric top stirrer, type RW 20 DZM, from Janke & Kunkel equipped with a rushton stirrer. Both homogeneous mixtures were poured in glass tubes and not touched for 26 days.

[3] = Crystal form stability of needle-shaped crystal suspension on storage; settings: 6 months of storage of suspension at 10° C.
From the text: As discussed above a sediment of the needle-shaped crystals of the present invention can be easily brought back in the suspended state without exclusive stirring or shaking. Another advantage of the needle-shaped crystals is that this crystal form is stable.

[4] = Stability of recrystallized natamycin dispersion (rest activity by HPLC); settings: for Found natamycin activity (%): dispersion made according to Example 1
Protocol: This example describes the method that was used to analyze the amount of active natamycin in a water-based mixture of several components.
The method used was a HPLC analysis based on the International Dairy Federation (Provisional IDF Standard 140, 1992) with a Lichrosorb RP 8 column.
Detection was at 303 nm UV with a range of 0.1-4 mg/L with an injection volume of 20 μl. Sample preparation was carried out by weighing 2 g of prepared formulation with an accuracy of 1 mg in a measuring flask. 4 ml demineralized water (demiwater) was added and the mixture was stirred for 15 minutes to get a homogeneous suspension.
Subsequently, 80 ml ethanol was added and the mixture was stirred for 10 minutes.
After ultrasonic treatment, the solution was filled up to 100 ml with demiwater and then diluted and/or filtered (0.2 μm) before injecting. The amount of active natamycin was calculated as ppm against a series of standards.
This example describes the stability of recrystallized natamycin, a natamycin dispersion is made according to Example 1 and followed in time on stability.

[5] = Dissolution of natamycin in water as a function of pH
Protocol: According to another aspect of the present invention, there is provided a process to produce the needle-shaped crystals of the invention. In the first step of this process, natamycin is dissolved in an aqueous solution. The solution comprises at least 80 wt %, preferably at least 90 wt % more preferably at least 95 wt % and still more preferably at least 98 wt % and preferably at least 99 wt % water as solvent. […] Preferably, natamycin is dissolved at a pH ranged between 10 and 14, more preferably at a pH ranged between 11 and 13. In general, natamycin of a purity of more than 90 wt % (including hydrate) preferably of a purity of 95% is used.

demixing observed ([1]; time 0 minutes) | demixing observed ([1]; time 40 minutes) | demixing observed ([1]; time 60 minutes) | demixing observed ([1]; time 110 minutes) | demixing observed ([1]; time 180 minutes) | demixing observed ([1]; time 4320 minutes) | resuspendability of pellet [2] | stability ([4]; for at least six months) | Found natamycin activity (%) ([4]; incubation time 0 months) | Found natamycin activity (%) ([4]; incubation time 1 month) | Found natamycin activity (%) ([4]; incubation time 2 months) | Found natamycin activity (%) ([4]; incubation time 4 months) | Found natamycin activity (%) ([4]; incubation time 6 months) | dissolution in water ([5]; low pH (lower than 4.0) or high pH (above 10.0)) | dissolution in water ([5]; neutral pH) | Compound | crystal form and mean length after storage [3]
Homogeneous | Start demixing observed | Two layers observed | Pellet formation | Pellet formation | Pellet and clear top layer | remained a solid pellet | – | – | – | – | – | – | – | – | C[C@@H]1C/C=C/C=C/C=C/C=C/[C@H](O[C@@H]2O[C@H](C)[C@@H](O)[C@H](N)[C@@H]2O)C[C@@H]2O[C@](O)(C[C@@H](O)C[C@H]3O[C@@H]3/C=C/C(=O)O1)C[C@H](O)[C@H]2C(=O)O [Standard natamycin, natamycin] | –
Homogeneous | Homogeneous | Homogeneous | Homogeneous | Homogeneous | Start demixing observed | almost completely resuspended | very high | 100% | 100% | 99% | 100% | 98% | – | – | C[C@@H]1C/C=C/C=C/C=C/C=C/[C@H](O[C@@H]2O[C@H](C)[C@@H](O)[C@H](N)[C@@H]2O)C[C@@H]2O[C@](O)(C[C@@H](O)C[C@H]3O[C@@H]3/C=C/C(=O)O1)C[C@H](O)[C@H]2C(=O)O [Recrystallized natamycin, natamycin] | still contained needle-shaped crystals having the same mean length
– | – | – | – | – | – | – | – | – | – | – | – | – | easily dissolve | hardly dissolve | C[C@@H]1C/C=C/C=C/C=C/C=C/[C@H](O[C@@H]2O[C@H](C)[C@@H](O)[C@H](N)[C@@H]2O)C[C@@H]2O[C@](O)(C[C@@H](O)C[C@H]3O[C@@H]3/C=C/C(=O)O1)C[C@H](O)[C@H]2C(=O)O [natamycin] | –
